For orientation: IC50 means the concentration needed to halve the response being measured.

From patent US7858349B2, “Anti-cancer compounds” (The Regents of the University of Colorado, priority 1999, dated 2010) come the findings set out here.

The test system of the first test is SCLC strain SHP-77. Briefly: MTT assay for cell survival, SCLC SHP-77 in vitro. Conditions: ED50 for killing of SCLC strain SHP-77 in vitro, 4 days, 0 = no detectable activity, read-out: SCLC SHP-77 IC50. The format is cell-based, human. For orientation: Tetrazolium assays rely on reduction of a dye to a coloured formazan, in cell work by metabolically active cells.
As for `CC1(C)CC(NC(=O)C(Cc2ccc(OCc3c(Cl)cccc3Cl)cc2)NC(=O)c2cccnc2)CC(C)(C)N1` (stereo not drawn) [Analog M-1704, Pyrc-OC2Y-Atmp], the concentration for half-maximal inhibition (IC50) turned out to be 25 µM. With `O=C(NC1CCN(Cc2ccccc2)CC1)[C@H](Cc1ccc(OCc2c(Cl)cccc2Cl)cc1)NC(=O)C12CC3CC(CC(C3)C1)C2` [Analog M-1678, Aca-OC2Y-Abzp], the IC50 was 7.8 µM. Take `CC1(C)CC(NC(=O)C(Cc2ccc(OCc3c(Cl)cccc3Cl)cc2)NC(=O)OCC2c3ccccc3-c3ccccc32)CC(C)(C)N1` (stereo not drawn) [Analog M-1800, Fmoc-OC2Y-Atmp]: the IC50 came out at 1.7 µM. On to `CC1(C)CC(NC(=O)C(Cc2ccc(F)cc2)NC(=O)C(=Cc2ccccc2)c2ccccc2)CC(C)(C)N1` (stereo not drawn) [Analog M-1788, Pcn-PFF-Atmp], for which the half-inhibitory concentration (IC50) was determined as 2.3 µM. `CC1(C)CC(NC(=O)C(Cc2ccc(C#N)cc2)NC(=O)C=Cc2cc(F)cc(F)c2F)CC(C)(C)N1` (stereo not drawn) [Analog M-1504, F3c-PCNF-Atmp]: the 50% inhibitory concentration (IC50) was more than 60 µM. For `O=C([C@H](Cc1ccc(OCc2c(Cl)cccc2Cl)cc1)NC(=O)C12CC3CC(CC(C3)C1)C2)N1CCN(c2ncccn2)CC1` [Analog M-1680, Aca-OC2Y-Pmpz], the IC50 was found to be 33 µM. In the case of `CCC(C(=O)NC(Cc1ccc(OCc2c(Cl)cccc2Cl)cc1)C(=O)NC1CC(C)(C)NC(C)(C)C1)C1CCCCC1` (stereo not drawn) [Analog M-1746, Chbu-OC2Y-Atmp], the IC50 was found to be 1.6 µM.

Take `CO[C@@](C(=O)NC(Cc1ccc(OCc2c(Cl)cccc2Cl)cc1)C(=O)NC1CC(C)(C)NC(C)(C)C1)(c1ccccc1)C(F)(F)F` (stereo partly drawn) [Analog M-1752, (R)-MTPA-OC2Y-Atmp]: the concentration for half-maximal inhibition (IC50) was determined as 4 µM.

In the case of `CC1(C)CC(NC(=O)[C@H](Cc2ccc(C#N)cc2)NC(=O)C(C2CCCCC2)C2CCCCC2)CC(C)(C)N1` [Analog M-1516, Dca-PCNF-Atmp], the half-maximal inhibitory concentration (IC50) turned out to be 11 µM.

For the compound `CC(C)(C)CC(=O)NC(Cc1ccc(OCc2c(Cl)cccc2Cl)cc1)C(=O)NC1CC(C)(C)NC(C)(C)C1` (stereo not drawn) [Analog M-1748, tBua-OC2Y-Atmp], the IC50 is 7.1 µM. Regarding `CC1CN(C(=O)C(Cc2ccc(OCc3c(Cl)cccc3Cl)cc2)NC(=O)C2CCn3c(C(=O)c4ccccc4)ccc32)CC(C)N1Cc1ccccc1` (stereo not drawn) [Analog M-1664, Ktlc-OC2Y-cDmbp], the concentration for half-maximal inhibition (IC50) is more than 60 µM. Still for that read-out and setting: next, `CC1(C)CC(NC(=O)C(Cc2ccc(OCc3c(Cl)cccc3Cl)cc2)NC(=O)C(c2ccc(Cl)cc2)c2ccc(Cl)cc2)CC(C)(C)N1` (stereo not drawn) [Analog M-1754, Bcpa-OC2Y-Atmp]: 1.5 µM; `COc1ccc2c(CC(=O)NC(Cc3ccc(OCc4c(Cl)cccc4Cl)cc3)C(=O)NC3CC(C)(C)NC(C)(C)C3)cc(=O)oc2c1` (stereo not drawn) [Analog M-1744, Mcoa-OC2Y-Atmp]: 7.1 µM; `CC1(C)CC(NC(=O)C(Cc2ccc(OCc3c(Cl)cccc3Cl)cc2)NC(=O)Cc2ccc3ccccc3c2)CC(C)(C)N1` (stereo not drawn) [Analog M-1710, 2Nala-OC2Y-Atmp]: 1.7 µM. For the compound `CC1(C)CC(NC(=O)C(Cc2ccc(C#N)cc2)NC(=O)COc2c(F)c(F)c(F)c(F)c2F)CC(C)(C)N1` (stereo not drawn) [Analog M-1488, F5po-PCNF-Atmp], the concentration for half-maximal inhibition (IC50) was more than 60 µM.

`CCCCCCC(O)CC=CCCCCCCCC(=O)NC(Cc1ccc(C#N)cc1)C(=O)NC1CC(C)(C)NC(C)(C)C1` (stereo not drawn) [Analog M-1478, Rio-PCNF-Atmp]: the IC50 was 14 µM. As for `COC(=O)CN1C(C)CN(C(=O)C(Cc2ccc(F)cc2)NC(=O)C=Cc2c(F)c(F)c(F)c(F)c2F)CC1C` (stereo not drawn) [Analog M-1432, F5c-PFF-Dmmp], the half-inhibitory concentration (IC50) is 18 µM. Regarding `O=C(N[C@@H](Cc1ccc(OCc2c(Cl)cccc2Cl)cc1)C(=O)N1CCN(c2ncccn2)CC1)C(=Cc1ccccc1)c1ccccc1` [Analog M-1670, Pcn-OC2Y-Pmpz], the IC50 was determined as 50 µM. Same read-out and setting: in the case of `CC1(C)CC(NC(=O)[C@H](Cc2ccc(C#N)cc2)NC(=O)CCCc2ccc(N(CCCl)CCCl)cc2)CC(C)(C)N1` [Analog M-1500, Chl-PCNF-Atmp] it was 25 µM; in that of `CC1(C)CC(NC(=O)C(Cc2cc(I)c(OCc3c(Cl)cccc3Cl)c(I)c2)NC(=O)C(c2ccc(Cl)cc2)c2ccc(Cl)cc2)CC(C)(C)N1` (stereo not drawn) [Analog M-1762, Bcpa-OCIY-Atmp], 3 µM; in that of `CC1(C)CC(NC(=O)C(NC(=O)c2ccc(B(O)O)cc2)C2Cc3ccccc3C2)CC(C)(C)N1` (stereo not drawn) [Analog M-1374, Bbz-Igl-Atmp], more than 60 µM. For `CC1(C)CC(NC(=O)C(NC(=O)c2ccccn2)C2Cc3ccccc3C2)CC(C)(C)N1` (stereo not drawn) [Analog M-1354, Pic-Igl-Atmp], the 50% inhibitory concentration (IC50) was more than 60 µM. On to `O=C(N[C@@H](Cc1ccc(OCc2c(Cl)cccc2Cl)cc1)C(=O)N1CCN(C/C=C/c2ccccc2)CC1)C(=Cc1ccccc1)c1ccccc1` [Analog M-1654, Pcn-OC2Y-tCip], for which the IC50 was more than 60 µM.

As to `CC1(C)CC(NC(=O)C(NC(=O)C(=Cc2ccccc2)c2ccccc2)C2Cc3ccccc3C2)CC(C)(C)N1` (stereo not drawn) [Analog M-1684, Pcn-Igl-Atmp], the IC50 turned out to be 4.2 µM.

Turning to `CC1(C)CC(NC(=O)C(Cc2ccc(OCc3c(Cl)cccc3Cl)cc2)NC(=O)C(C)(C)C)CC(C)(C)N1` (stereo not drawn) [Analog M-1736, Piva-OC2Y-Atmp], the IC50 was 13 µM.

`O=C(N[C@H]1CN2CCC1CC2)C(Cc1ccc(OCc2c(Cl)cccc2Cl)cc1)NC(=O)C(c1ccccc1)C1CCCCC1` (single isomer, unassigned) [M-1548 #2]: the IC50 worked out at 13 µM. Regarding `CC1(C)CC(NC(=O)C(NC(=O)C2CCn3c(C(=O)c4ccccc4)ccc32)C2Cc3ccccc3C2)CC(C)(C)N1` (stereo not drawn) [Analog M-1686, Ktlc-Igl-Atmp], the IC50 came out at 14 µM. On the same count and under the same terms, in the case of `CN1CCN(CCCNC(=O)[C@H](Cc2ccc(OCc3c(Cl)cccc3Cl)cc2)NC(=O)C(=Cc2ccccc2)c2ccccc2)CC1` [Analog M-1658, Pcn-OC2Y-Amp] it was 10 µM; in that of `CN1CCN(CCCNC(=O)C(Cc2ccc(OCc3c(Cl)cccc3Cl)cc2)NC(=O)c2c3ccccc3nc3ccccc23)CC1` (stereo not drawn) [Analog M-1700, Acrc-OC2Y-Amp], 7.3 µM. With `CC1(C)CC(NC(=O)C(Cc2ccc(-c3ccccc3)cc2)NC(=O)C(Oc2ccc(Cl)cc2)Oc2ccc(Cl)cc2)CC(C)(C)N1` (stereo not drawn) [Analog M-1766, Bcpoa-Bip-Atmp], the half-maximal inhibitory concentration (IC50) stood at 2 µM.

For `CO[C@](C(=O)NC(Cc1ccc(OCc2c(Cl)cccc2Cl)cc1)C(=O)NC1CC(C)(C)NC(C)(C)C1)(c1ccccc1)C(F)(F)F` (stereo partly drawn) [Analog M-1750, (S)-MTPA-OC2Y-Atmp], the half-maximal inhibitory concentration (IC50) turned out to be 4.2 µM. As to `CC1(C)CC(NC(=O)[C@H](Cc2ccc(OCc3c(Cl)cccc3Cl)cc2)NC(=O)C(Cl)Cl)CC(C)(C)N1` [Analog M-1692, Dcla-OC2Y-Atmp], the half-maximal inhibitory concentration (IC50) was 7.2 µM.

In the case of `CC(C)CC(NC(=O)OCC1c2ccccc2-c2ccccc21)C(=O)NC1CC(C)(C)NC(C)(C)C1` (stereo not drawn) [Analog M-1798, Fmoc-Leu-Atmp], the 50% inhibitory concentration (IC50) was determined as 7.6 µM. Turning to `CC1CN(C(=O)C(Cc2ccc(OCc3c(Cl)cccc3Cl)cc2)NC(=O)C(=Cc2ccccc2)c2ccccc2)CC(C)N1Cc1ccccc1` (stereo not drawn) [Analog M-1662, Pcn-OC2Y-cDmbp], the concentration for half-maximal inhibition (IC50) was determined as 20 µM.

Staying with this test, now noted: ED50 for killing of SCLC strain SHP-77 in vitro, 4 days, 0 = no detectable activity, read-out: SHP-77 In vitro IC50.
As to `CC1(C)CC(NC(=O)C(NC(=O)C=Cc2c(F)c(F)c(F)c(F)c2F)C(c2ccccc2)c2ccccc2)CC(C)(C)N1` (stereo not drawn) [Analog M-1150, F5c-Dip-Atmp], the IC50 was 5 µM. Same read-out and setting: next, `CC1CN(C(=O)C(Cc2ccc(F)cc2)NC(=O)C=Cc2c(F)c(F)c(F)c(F)c2F)CC(C)N1` (stereo not drawn) [Analog M-1160, F5c-PFF-Dmpz]: 24 µM; `CC1(C)CC(NC(=O)C(Cc2ccc(C(F)(F)F)cc2)NC(=O)C=Cc2c(F)c(F)c(F)c(F)c2F)CC(C)(C)N1` (stereo not drawn) [Analog M-1146, F5c-F3MF-Atmp]: 12 µM. As to `CC1CN(C(=O)C(Cc2ccc(I)cc2)NC(=O)C=Cc2c(F)c(F)c(F)c(F)c2F)CC(C)N1` (stereo not drawn) [Analog M-1254, F5c-PIF-Dmpz], the IC50 came to 10 µM.

In the case of `CC1(C)CC(NC(=O)C(CCc2ccccc2)NC(=O)C=Cc2c(F)c(F)c(F)c(F)c2F)CC(C)(C)N1` (stereo not drawn) [Analog M-1176, F5c-hPhe-Atmp], the IC50 was found to be 14 µM. Regarding `CC1(C)CC(NC(=O)C(Cc2c[nH]c3ccccc23)NC(=O)C(N)CCC(=O)O)CC(C)(C)N1` (stereo not drawn) [Analog M-1120, Glu-Trp-Atmp], the IC50 is more than 60 µM. With `O=C(C=Cc1c(F)c(F)c(F)c(F)c1F)NC(Cc1ccc(F)cc1)C(=O)N1CCN(c2ccccn2)CC1` (stereo not drawn) [Analog M-1164, F5c-PFF-Pypz], the IC50 came out at 14 µM. Regarding `O=C(C=Cc1cccnc1)NC(Cc1ccc2ccccc2c1)C(=O)N1CCN(C(c2ccccc2)c2ccc(Cl)cc2)CC1` (stereo not drawn) [Analog M-1204, Pya-Nal-Cbp], the IC50 amounted to 7.5 µM. For the compound `CC1(C)CC(NC(=O)C(Cc2ccc(OCc3c(Cl)cccc3Cl)cc2)NC(=O)C(F)(F)C(F)(F)C(F)(F)C(=O)O)CC(C)(C)N1` (stereo not drawn) [M-1098 #1, CHFB-OC2Y-Atmp], the IC50 is more than 60 µM. As to `CC1(C)CC(NC(=O)C(Cc2ccc(F)cc2)NC(=O)C=Cc2c(F)c(F)c(F)c(F)c2F)CC(C)(C)N1` (stereo not drawn) [Analog M-1140, F5c-PFF-Atmp], the 50% inhibitory concentration (IC50) was 15 µM.

Turning to `O=C(C=Cc1cccnc1)NC(Cc1ccc(F)cc1)C(=O)N1CCN(c2ccc(Cl)cc2)CC1` (stereo not drawn) [Analog M-1212, Pya-PFF-Cpp], the IC50 worked out at 10 µM. Same read-out and setting: next, `CC1(C)CC(NC(=O)C(Cc2ccccc2)NC(=O)C=Cc2c(F)c(F)c(F)c(F)c2F)CC(C)(C)N1` (stereo not drawn) [Analog M-1178, F5c-Phe-Atmp]: 15 µM; `CC1CN(C(=O)C(Cc2c(F)c(F)c(F)c(F)c2F)NC(=O)C=Cc2c(F)c(F)c(F)c(F)c2F)CC(C)N1` (stereo not drawn) [Analog M-1186, F5c-F5F-Dmpz]: 11 µM; `O=C(C=Cc1c(F)c(F)c(F)c(F)c1F)NC(Cc1ccc(I)cc1)C(=O)N(Cc1ccccn1)Cc1ccccn1` (stereo not drawn) [Analog M-1256, F5c-PIF-Dpic]: 13 µM. As for `CN(C(=O)C=Cc1c(F)c(F)c(F)c(F)c1F)C(Cc1ccccc1)C(=O)NC1CC(C)(C)NC(C)(C)C1` (stereo not drawn) [Analog M-1148, F5c-NMF-Atmp], the IC50 was 15.5 µM. As to `CC1(C)CC(NC(=O)C(Cc2ccc(OP(=O)(O)OCc3ccccc3)cc2)NC(=O)C=Cc2c(F)c(F)c(F)c(F)c2F)CC(C)(C)N1` (stereo not drawn) [Analog M-1080, F5c-OBPY-Atmp], the IC50 was more than 60 µM. Same read-out and setting: in the case of `CN1CCN(C(=O)C(Cc2ccc(F)cc2)NC(=O)C=Cc2c(F)c(F)c(F)c(F)c2F)CC1` (stereo not drawn) [Analog M-1158, F5c-PFF-Mpz] it was 28 µM.
